Assay results taken from ChEMBL document CHEMBL4145594, “Discovery of N-Alkyl Piperazine Side Chain Based CXCR4 Antagonists with Improved Drug-like Properties” (ACS Med Chem Lett, 2018).
pIC50: −log10 of the molar value. The source made the active and inactive calls. No cut-off for these calls is given here.

Columns and labels:
[1] = biological target: Muscarinic acetylcholine receptor; assay: Antagonist activity at mAChR in human CCRF-CEM cells assessed as inhibition of acetylcholine-induced calcium flux pretreated for 25 mins followed by acetylcholine addition measured for 90 secs by calcium-dye based assay; assay type: functional, cell-based
[2] = biological target: T1, C-X-C chemokine receptor type 4 (Homo sapiens, UniProt P61073); assay: Agonist activity at CXCR4 in human CCRF-CEM cells measured for 90 secs by calcium flux assay; assay type: functional, cell-based
T1 sequence (P61073 whole entry): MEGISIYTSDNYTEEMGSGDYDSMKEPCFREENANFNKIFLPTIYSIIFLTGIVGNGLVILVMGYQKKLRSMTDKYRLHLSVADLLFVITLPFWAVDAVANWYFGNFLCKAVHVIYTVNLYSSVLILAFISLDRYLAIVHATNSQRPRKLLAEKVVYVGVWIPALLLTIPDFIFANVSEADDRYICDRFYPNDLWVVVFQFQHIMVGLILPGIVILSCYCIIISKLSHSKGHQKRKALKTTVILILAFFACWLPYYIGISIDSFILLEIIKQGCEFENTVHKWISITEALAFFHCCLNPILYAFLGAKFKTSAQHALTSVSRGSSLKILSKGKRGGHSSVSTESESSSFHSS

in vitro = details: PAMPA, pH 7.4
Description: Permeability of the compound at pH 7.4 after 4 hrs by PAMPA

[3] = Stability in mouse liver microsomes assessed as parent compound remaining at 0.5 uM after 10 mins by LC-MS analysis
[4] = Stability in human liver microsomes assessed as parent compound remaining at 0.5 uM after 10 mins by LC-MS analysis
[5] = biological target: T1, C-X-C chemokine receptor type 4; assay: Antagonist activity at CXCR4 in human CCRF-CEM cells assessed as inhibition of […]-induced calcium flux pretreated for 25 mins followed by […] addition measured for 90 secs by calcium-dye based assay; assay type: functional, cell-based
Cytochrome P450 2D6 = Cytochrome P450 2D6 (Homo sapiens, UniProt P10635)
Sequence of Cytochrome P450 2D6 (P10635 whole entry): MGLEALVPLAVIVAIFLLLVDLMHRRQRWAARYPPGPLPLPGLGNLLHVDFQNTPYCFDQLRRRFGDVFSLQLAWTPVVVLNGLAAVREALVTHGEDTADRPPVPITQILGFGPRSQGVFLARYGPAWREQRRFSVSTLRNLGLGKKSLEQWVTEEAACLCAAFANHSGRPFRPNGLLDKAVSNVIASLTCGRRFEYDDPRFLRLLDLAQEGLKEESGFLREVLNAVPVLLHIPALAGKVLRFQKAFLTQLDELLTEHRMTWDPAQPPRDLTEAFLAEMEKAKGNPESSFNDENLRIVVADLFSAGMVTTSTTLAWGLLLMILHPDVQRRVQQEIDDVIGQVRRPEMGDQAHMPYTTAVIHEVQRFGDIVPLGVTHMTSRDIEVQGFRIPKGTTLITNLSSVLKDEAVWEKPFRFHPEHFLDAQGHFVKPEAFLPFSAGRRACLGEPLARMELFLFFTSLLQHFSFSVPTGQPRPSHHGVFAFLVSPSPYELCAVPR
Description: Inhibition of recombinant human CYP2D6 expressed in insect cell microsomes using AMMC as substrate pretreated for 30 mins followed by NADPH addition measured after 45 mins by fluorescence assay

[6] = Stability in rat liver microsomes assessed as parent compound remaining at 0.5 uM after 10 mins by LC-MS analysis
Cytochrome P450 3A4 = Cytochrome P450 3A4 (Homo sapiens, UniProt P08684); assay: Inhibition of CYP3A4 (unknown origin); assay type: ADME
Sequence of Cytochrome P450 3A4 (P08684 whole entry): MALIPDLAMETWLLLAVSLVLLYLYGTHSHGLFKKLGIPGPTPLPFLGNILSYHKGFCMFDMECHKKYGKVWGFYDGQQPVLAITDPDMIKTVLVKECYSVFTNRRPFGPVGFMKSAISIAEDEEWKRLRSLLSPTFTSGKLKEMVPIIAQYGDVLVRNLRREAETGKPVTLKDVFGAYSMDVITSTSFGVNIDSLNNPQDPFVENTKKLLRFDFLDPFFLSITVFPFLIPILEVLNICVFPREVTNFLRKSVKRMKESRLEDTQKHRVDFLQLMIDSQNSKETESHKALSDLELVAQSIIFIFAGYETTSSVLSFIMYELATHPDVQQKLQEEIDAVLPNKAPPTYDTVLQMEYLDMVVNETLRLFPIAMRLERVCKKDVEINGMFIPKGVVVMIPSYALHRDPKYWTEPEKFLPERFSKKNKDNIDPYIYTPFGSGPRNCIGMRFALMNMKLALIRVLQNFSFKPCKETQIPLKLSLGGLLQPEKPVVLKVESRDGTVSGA

Homo sapiens [7] = species on record: Homo sapiens; assay: Therapeutic index, ratio of IC50 for AChE (unknown origin) to IC50 for CXCR4 in human CCRF-CEM cells; assay type: cell-based
Acetylcholinesterase = Acetylcholinesterase (Homo sapiens, UniProt P22303); assay: Inhibition of AChE (unknown origin)
Sequence of Acetylcholinesterase (P22303 whole entry): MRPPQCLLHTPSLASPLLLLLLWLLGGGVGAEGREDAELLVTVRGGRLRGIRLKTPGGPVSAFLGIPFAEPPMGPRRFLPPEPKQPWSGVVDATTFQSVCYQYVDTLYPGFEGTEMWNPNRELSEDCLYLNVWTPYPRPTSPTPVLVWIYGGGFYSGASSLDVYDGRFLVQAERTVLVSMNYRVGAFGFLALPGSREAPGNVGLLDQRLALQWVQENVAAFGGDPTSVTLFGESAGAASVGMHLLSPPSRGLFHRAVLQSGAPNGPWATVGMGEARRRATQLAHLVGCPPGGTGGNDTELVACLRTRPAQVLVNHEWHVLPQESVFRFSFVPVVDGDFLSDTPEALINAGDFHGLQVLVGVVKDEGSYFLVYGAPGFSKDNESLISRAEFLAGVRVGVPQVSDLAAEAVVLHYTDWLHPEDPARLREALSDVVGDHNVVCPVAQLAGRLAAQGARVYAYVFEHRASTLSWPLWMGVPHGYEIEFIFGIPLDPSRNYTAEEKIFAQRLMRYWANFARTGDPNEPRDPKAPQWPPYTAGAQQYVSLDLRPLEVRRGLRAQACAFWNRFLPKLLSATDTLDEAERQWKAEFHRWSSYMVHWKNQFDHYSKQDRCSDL

Homo sapiens [8] = species on record: Homo sapiens; assay: Therapeutic index, ratio of IC50 for nAChR alpha1 (unknown origin) to IC50 for CXCR4 in human CCRF-CEM cells; assay type: cell-based
[9] = biological target: Acetylcholine receptor subunit alpha (Homo sapiens, UniProt P02708); assay: Inhibition of nAChR alpha1 (unknown origin)
Sequence of Acetylcholine receptor subunit alpha (P02708 whole entry): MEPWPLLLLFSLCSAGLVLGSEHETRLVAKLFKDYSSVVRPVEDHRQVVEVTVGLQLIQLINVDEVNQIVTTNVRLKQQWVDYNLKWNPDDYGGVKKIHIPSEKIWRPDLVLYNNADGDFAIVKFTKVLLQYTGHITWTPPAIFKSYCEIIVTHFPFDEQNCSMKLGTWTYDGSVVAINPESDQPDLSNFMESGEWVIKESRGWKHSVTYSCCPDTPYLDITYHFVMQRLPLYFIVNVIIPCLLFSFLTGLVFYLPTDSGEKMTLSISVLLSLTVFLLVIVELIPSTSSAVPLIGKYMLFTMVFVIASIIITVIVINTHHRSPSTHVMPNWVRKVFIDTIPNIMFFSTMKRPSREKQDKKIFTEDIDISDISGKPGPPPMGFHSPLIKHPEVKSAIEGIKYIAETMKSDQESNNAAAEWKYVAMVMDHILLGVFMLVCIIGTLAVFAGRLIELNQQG

Mu-type opioid receptor = Mu-type opioid receptor (Homo sapiens, UniProt P35372); assay: Inhibition of mu opioid receptor (unknown origin)
Sequence of Mu-type opioid receptor (P35372 whole entry): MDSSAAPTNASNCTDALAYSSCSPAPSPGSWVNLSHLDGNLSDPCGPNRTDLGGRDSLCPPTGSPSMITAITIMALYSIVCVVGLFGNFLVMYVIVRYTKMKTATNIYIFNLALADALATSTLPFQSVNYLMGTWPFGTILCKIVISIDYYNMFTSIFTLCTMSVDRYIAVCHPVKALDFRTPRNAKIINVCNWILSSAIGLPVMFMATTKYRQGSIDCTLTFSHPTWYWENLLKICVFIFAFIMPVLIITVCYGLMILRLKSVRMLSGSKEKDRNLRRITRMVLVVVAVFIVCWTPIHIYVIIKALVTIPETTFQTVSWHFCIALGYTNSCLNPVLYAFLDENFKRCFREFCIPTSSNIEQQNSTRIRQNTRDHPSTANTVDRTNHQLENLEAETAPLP

Homo sapiens [10] = species on record: Homo sapiens; assay: Therapeutic index, ratio of IC50 for mu opioid receptor (unknown origin) to IC50 for CXCR4 in human CCRF-CEM cells; assay type: cell-based
[11] = biological target: T2, Alpha-2A adrenergic receptor (Homo sapiens, UniProt P08913); assay: Inhibition of adrenergic alpha2A receptor (unknown origin)
T2 sequence (P08913 whole entry): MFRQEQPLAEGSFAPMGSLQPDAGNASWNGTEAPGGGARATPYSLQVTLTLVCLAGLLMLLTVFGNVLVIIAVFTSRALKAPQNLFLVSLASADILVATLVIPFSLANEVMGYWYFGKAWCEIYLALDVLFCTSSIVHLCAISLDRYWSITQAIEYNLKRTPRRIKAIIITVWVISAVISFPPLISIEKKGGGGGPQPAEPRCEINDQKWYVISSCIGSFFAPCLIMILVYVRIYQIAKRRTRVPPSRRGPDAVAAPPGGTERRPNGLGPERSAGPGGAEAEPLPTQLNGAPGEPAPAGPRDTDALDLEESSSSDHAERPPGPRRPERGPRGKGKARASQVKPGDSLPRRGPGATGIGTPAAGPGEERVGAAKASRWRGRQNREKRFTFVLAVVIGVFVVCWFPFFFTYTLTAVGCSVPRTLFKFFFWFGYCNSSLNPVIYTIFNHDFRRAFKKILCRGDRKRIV

Homo sapiens [12] = species on record: Homo sapiens; assay: Therapeutic index, ratio of IC50 for adrenergic alpha2A receptor (unknown origin) to IC50 for CXCR4 in human CCRF-CEM cells; assay type: cell-based

Row | Compound | IC50 [1] [µM] | Activity [2] | Papp at 4 h (in vitro) [×10⁻⁶ cm/s] | remaining at 10 min, 0.5 µM [3] [%] | remaining at 10 min, 0.5 µM [4] [%] | pIC50 [5] | pIC50 (Cytochrome P450 2D6) | remaining at 10 min, 0.5 µM [6] [%] | pIC50 (Cytochrome P450 3A4) | Ratio IC50 (Homo sapiens [7]) | pIC50 (Acetylcholinesterase) | Ratio IC50 (Homo sapiens [8]) | pIC50 [9] | pIC50 (Mu-type opioid receptor) | Ratio IC50 (Homo sapiens [10]) | pIC50 [11] | Ratio IC50 (Homo sapiens [12])
1 | c1ccc2c(c1)CN[C@@H](CN(CCCN1CCN(C3CC3)CC1)[C@H]1CCCc3cccnc31)C2 | > 17 | inactive | 50.5 | 3 | 21 | 7.30 | 5.22 | 2 | < 4.70 |  |  |  |  |  |  |  | 
2 | c1cnc2c(c1)CCC[C@@H]2N(CCCN1CCNCC1)Cc1cc2ccccc2cn1 | 3.2 | inactive | 24.3 | 74 | 66 | 7.77 | 5.53 | 59 | < 4.70 |  |  |  |  |  |  |  | 
3 | c1cnc(CN(CCCN2CCNCC2)[C@H]2CCCc3cccnc32)nc1 | > 17 | inactive | 3.1 | 78 | 100 |  | < 4.70 | 68 | < 4.70 |  |  |  |  |  |  |  | 
4 | c1ccc2c(c1)CN[C@@H](CN(CCCN1CCNCC1)[C@H]1CCCc3cccnc31)C2 | > 14 | inactive |  | 92 | 100 | 7.77 | 5.67 | 100 | < 4.92 | < 100 | < 4.52 | < 100 | < 4.52 | < 4.52 | < 100 | < 4.52 | < 100
5 | c1cnc2c(c1)CCC[C@@H]2N(CCCN1CCNCC1)Cc1nc2ccccc2[nH]1 | > 17 | inactive | 14.6 | 68 | 63 |  | < 4.70 | 29 | 4.90 |  |  |  |  |  |  |  | 
6 | CN1CCN(CCCN(C[C@H]2Cc3ccccc3CN2)[C@H]2CCCc3cccnc32)CC1 | 6.56 | inactive | 36 | 53 | 72 | 6.90 | 5.25 | 10 | < 4.70 |  |  |  |  |  |  |  | 
7 | c1ccc2c(c1)CN[C@@H](CN(CC[C@H]1CCCNC1)[C@H]1CCCc3cccnc31)C2 | > 14 | inactive | 5.5 | 56 | 93 | 7.80 | 6.96 | 55 | < 4.92 | < 100 | 4.97 | < 100 | 4.95 | 4.95 | 100 to 1000 | 5.23 | 100 to 1000
8 | CCN1CCN(CCCN(C[C@H]2Cc3ccccc3CN2)[C@H]2CCCc3cccnc32)CC1 | > 17 | inactive | 31.7 | 19 | 59 | 7.48 | < 4.70 | 1 | < 4.70 |  |  |  |  |  |  |  | 
9 | c1ccc2c(c1)CN[C@@H](CN(CC1CCNCC1)[C@H]1CCCc3cccnc31)C2 | > 14 | inactive |  | 13 | 86 | 7.19 | 5.73 | 65 | < 4.92 |  |  |  |  |  |  |  | 
10 | c1cnc2c(c1)CN[C@@H](CN(CCCN1CCNCC1)[C@H]1CCCc3cccnc31)C2 | > 17 | inactive | 0.9 | 78 | 79 | 6.77 | < 4.70 | 79 | < 4.70 |  |  |  |  |  |  |  | 
11 | c1ccc2c(c1)CN[C@H](CN(CCCN1CCNCC1)[C@H]1CCCc3cccnc31)C2 | > 17 | inactive | 1.6 | 88 | 99 | 5.94 | 5.85 | 88 | < 4.70 |  |  |  |  |  |  |  | 
12 | NCCCCN(C[C@H]1Cc2ccccc2CN1)[C@H]1CCCc2cccnc21 |  | inactive |  |  |  |  |  |  |  |  | < 4.52 |  | < 4.52 | 4.83 |  | 5.43 | 
13 | c1ccc2c(c1)CN[C@@H](CN(CCN1CCNCC1)[C@H]1CCCc3cccnc31)C2 | > 14 | inactive | 1 | 79 | 96 | 6.26 | 5.38 | 62 | < 4.92 | < 100 |  |  |  |  |  |  | 
14 | c1ccc2c(c1)CN[C@@H](CN(CCC1CCNCC1)[C@H]1CCCc3cccnc31)C2 | > 14 | inactive | 1.9 | 32 | 66 | 6.82 | 5.98 | 17 | < 4.92 |  |  |  |  |  |  |  | 
15 | CC(C)N1CCN(CCCN(C[C@H]2Cc3ccccc3CN2)[C@H]2CCCc3cccnc32)CC1 | > 17 | inactive | 34.4 | 58 | 46 | 7.21 | 5.18 | 4 | < 4.70 |  |  |  |  |  |  |  | 
16 | c1ccc2c(c1)CN[C@@H](CN(CC[C@@H]1CCCNC1)[C@H]1CCCc3cccnc31)C2 | > 14 | inactive |  | 23 | 75 | 6.79 | 7.52 | 28 | < 4.92 |  |  |  |  |  |  |  | 
17 | NC(=O)N1CCN(CCCN(C[C@H]2Cc3ccccc3CN2)[C@H]2CCCc3cccnc32)CC1 | 4.98 | inactive | 6.7 | 42 | 79 | 6.02 | 5.38 | 4 | < 4.70 |  |  |  |  |  |  |  | 
18 | c1cnc2c(c1)CCC[C@@H]2N(CCCN1CCNCC1)Cc1nc2ccccc2s1 | > 17 | inactive |  | 45 | 50 |  | < 4.70 | 21 | 5.03 |  |  |  |  |  |  |  | 
19 | CN1CCN(CCCN(CC2Cc3ccccc3CN2C)[C@H]2CCCc3cccnc32)CC1 (single isomer, unassigned) | > 17 | inactive | 51.3 | 43 | 60 | 6.27 | 5.29 | 2 | < 4.70 |  |  |  |  |  |  |  | 
20 | c1cnc2c(c1)CN[C@H](CN(CCCN1CCNCC1)[C@H]1CCCc3cccnc31)C2 | > 17 | inactive |  | 63 | 100 | 5.58 | < 4.70 | 87 | < 4.70 |  |  |  |  |  |  |  | 
21 | NCCCCN(Cc1nc2ccccc2[nH]1)[C@H]1CCCc2cccnc21 [MAVORIXAFOR] | > 17 | inactive |  |  |  |  |  |  |  |  |  |  |  |  |  |  | 
22 | c1ccc2c(c1)CN[C@@H](CN(CCCCN1CCNCC1)[C@H]1CCCc3cccnc31)C2 | > 14 | inactive | 1.4 | 96 | 82 | 7.18 | 5.84 | 15 | < 4.92 |  |  |  |  |  |  |  | 
